According to paper PMC9151520 (Archives of Toxicology, 2022):
Several values for one entry are separate records, joined by “and”; a condition that tells them apart may be missing. Identical values can stand only once. Like-named read-outs stand apart in the source and are kept apart here.

Key:
[1] = tested on: p53 signaling (p53RE-bla HCT-116 cells); experiment: cells; type: cell-based; settings: for EC50 / Emax: Homo sapiens
[2] = tested on: p53 signaling (p53RE-bla HCT-116 cells)
[3] = tested on: p53 signaling (p53RE-bla HCT-116 cells); remark: listed apart in the source
p53RE-bla HCT-116 cells [4] = experiment: cells; settings: Homo sapiens
p53RE-bla HCT-116 cells [5] = tested on: p53RE-bla HCT-116 cells
[6] = HCT-116, read-out: EC50, p53 activation, primary screening
[7] = HCT-116, read-out: Efficacy, p53 activation, primary screening
[8] = HCT-116, read-out: EC50, viability, primary screening

SMILES | EC50, p53 activation, cherry pick confirmation [1] | Efficacy, p53 activation, cherry pick confirmation [1] | EC50 [1, 6] [µM] | Emax [1, 7] [%] | EC50, p53 activation, cherry pick confirmation [2] | EC50, p53 activation, primary screening [2] | Efficacy, p53 activation, cherry pick confirmation [2] | Efficacy, p53 activation, primary screening [2] | EC50, p53 activation, cherry pick confirmation [3] | EC50, p53 activation, primary screening [3] | Efficacy, p53 activation, cherry pick confirmation [3] | Efficacy, p53 activation, primary screening [3] | EC50 (p53RE-bla HCT-116 cells [4]; [8]) [µM] | EC50, viability, cherry pick confirmation (p53RE-bla HCT-116 cells [5]) | EC50, viability, primary screening (p53RE-bla HCT-116 cells [5]) | also measured
Oc1c(I)cc(I)cc1I [2,4,6-Triiodophenol] | inactive | inactive | 20.7 | 27.1 | inactive | inactive | inactive | inactive | inactive | inactive | inactive | inactive | 19 | inactive | inactive | 
CC(C)(c1cc(Br)c(O)c(Br)c1)c1cc(Br)c(O)c(Br)c1 [3,3',5,5'-Tetrabromobisphenol A] | inactive | inactive | 30.1 | 91.5 | inactive | inactive | inactive | inactive | inactive | inactive | inactive | inactive | 34.3 |  |  | EC50 (p53RE-bla HCT-116 cells [5]; read-out: EC50, viability, primary screening): 34.9 µM and 45.8 µM
Oc1cc(Cl)c(Cl)c(Cl)c1 [3,4,5-Trichlorophenol] |  |  | 40.3 | 25.7 | inactive | inactive | inactive | inactive | inactive | inactive | inactive | inactive |  | inactive | inactive | EC50 ([1]; HCT-116, read-out: EC50, p53 activation, cherry pick confirmation): 48.4 µM; Emax ([1]; HCT-116, read-out: Efficacy, p53 activation, cherry pick confirmation): 40.3%; EC50 (p53RE-bla HCT-116 cells [4]; HCT-116, read-out: EC50, viability, cherry pick confirmation): 27.4 µM; Efficacy, viability, primary screening (p53RE-bla HCT-116 cells [5]): inactive
O=Nc1ccc(Nc2ccccc2)cc1 [4-Nitrosodiphenylamine] |  |  |  |  |  |  |  |  |  |  |  |  |  |  |  | EC50 ([1]; HCT-116, read-out: p53 activation EC50, cherry pick confirmation): 27.6 µM; EC50 ([1]; HCT-116, read-out: p53 activation EC50, primary screening): 47.6 µM; Emax ([1]; HCT-116, read-out: p53 activation efficacy, cherry pick confirmation): 84.9%; Emax ([1]; HCT-116, read-out: p53 activation efficacy, primary screening): 61.2%; p53 activation EC50, cherry pick confirmation [2]: inactive; p53 activation EC50, primary screening [2]: inactive; p53 activation efficacy, cherry pick confirmation [2]: inactive; p53 activation efficacy, primary screening [2]: inactive; p53 activation EC50, cherry pick confirmation [3]: inactive; p53 activation EC50, primary screening [3]: inactive; p53 activation efficacy, cherry pick confirmation [3]: inactive; p53 activation efficacy, primary screening [3]: inactive; EC50 (p53RE-bla HCT-116 cells [4]; HCT-116, read-out: Viability EC50, cherry pick confirmation): 40.8 µM; Viability EC50, cherry pick confirmation (p53RE-bla HCT-116 cells [5]): inactive; Viability EC50, primary screening (p53RE-bla HCT-116 cells [5]): inactive; Viability efficacy, primary screening (p53RE-bla HCT-116 cells [5]): inactive; EC50 (p53RE-bla HCT-116 cells [5]; read-out: Viability EC50, cherry pick confirmation): 36.3 µM
